According to the NIST ThermoML archive (doi:10.1016/j.jct.2018.08.005):
Numbers after ± are expanded uncertainties.

How the values were obtained:
[1] = molar heat capacity at constant pressure; conditions: 100 kPa, Liquid, DSC
[2] = molar heat capacity at constant pressure; xn = mol fraction of the nth substance listed; conditions: 100 kPa, Liquid, DSC, x2 = 0

CCOC(F)(C(F)(F)C(F)(F)C(F)(F)F)C(F)(C(F)(F)F)C(F)(F)F (configuration not stated) [2-trifluoromethyl-3-ethoxydodecafluorohexane]
molar heat capacity at constant pressure ([1]; 297.91 K): 466.29 ± 27 J/K/mol | molar heat capacity at constant pressure ([1]; 307.79 K): 472.92 ± 27 J/K/mol | molar heat capacity at constant pressure ([1]; 317.66 K): 479.54 ± 27 J/K/mol | molar heat capacity at constant pressure ([1]; 327.54 K): 486.58 ± 28 J/K/mol | molar heat capacity at constant pressure ([1]; 337.42 K): 494.03 ± 28 J/K/mol | molar heat capacity at constant pressure ([1]; 347.29 K): 500.66 ± 29 J/K/mol | molar heat capacity at constant pressure ([1]; 357.17 K): 508.53 ± 29 J/K/mol | molar heat capacity at constant pressure ([1]; 367.05 K): 517.23 ± 29 J/K/mol | molar heat capacity at constant pressure ([1]; 376.92 K): 523.85 ± 30 J/K/mol | molar heat capacity at constant pressure ([1]; 386.8 K): 531.72 ± 30 J/K/mol

CC(C)OC(C)C [diisopropyl ether]
molar heat capacity at constant pressure ([1]; 290.5 K): 211.5 ± 12 J/K/mol | molar heat capacity at constant pressure ([1]; 295.44 K): 213.44 ± 12 J/K/mol | molar heat capacity at constant pressure ([1]; 300.38 K): 215.28 ± 12 J/K/mol | molar heat capacity at constant pressure ([1]; 305.32 K): 217.33 ± 12 J/K/mol | molar heat capacity at constant pressure ([1]; 310.26 K): 219.37 ± 13 J/K/mol | molar heat capacity at constant pressure ([1]; 315.2 K): 221.41 ± 13 J/K/mol | molar heat capacity at constant pressure ([1]; 320.13 K): 223.46 ± 13 J/K/mol | molar heat capacity at constant pressure ([1]; 325.07 K): 225.5 ± 13 J/K/mol | molar heat capacity at constant pressure ([1]; 330.01 K): 227.65 ± 13 J/K/mol | molar heat capacity at constant pressure ([1]; 334.95 K): 229.89 ± 13 J/K/mol | molar heat capacity at constant pressure ([1]; 339.89 K): 232.04 ± 13 J/K/mol

CC(C)OC(C)C [diisopropyl ether] + CCOC(F)(C(F)(F)C(F)(F)C(F)(F)F)C(F)(C(F)(F)F)C(F)(F)F
molar heat capacity at constant pressure ([2]; 290.5 K): 211.5 ± 12 J/K/mol | molar heat capacity at constant pressure ([2]; 295.44 K): 213.44 ± 12 J/K/mol | molar heat capacity at constant pressure ([2]; 300.38 K): 215.28 ± 12 J/K/mol | molar heat capacity at constant pressure ([2]; 305.32 K): 217.33 ± 12 J/K/mol | molar heat capacity at constant pressure ([2]; 310.26 K): 219.37 ± 13 J/K/mol | molar heat capacity at constant pressure ([2]; 315.2 K): 221.41 ± 13 J/K/mol | molar heat capacity at constant pressure ([2]; 320.13 K): 223.46 ± 13 J/K/mol | molar heat capacity at constant pressure ([2]; 325.07 K): 225.5 ± 13 J/K/mol | molar heat capacity at constant pressure ([2]; 330.01 K): 227.65 ± 13 J/K/mol | molar heat capacity at constant pressure ([2]; 334.95 K): 229.89 ± 13 J/K/mol | molar heat capacity at constant pressure ([2]; 339.89 K): 232.04 ± 13 J/K/mol
